The experiment concerns the target Genome polyprotein (Dengue virus type 2 (strain Thailand/16681/1984), UniProt P29990). In words: Inhibition of DENV2 NS2B-NS3 serine protease expressed in human Huh7 cells after 3 days by luciferase reporter gene assay. Background: Reporter assays use an easily measured gene product as a stand-in for the process of interest.

What is called EC50 is the concentration at which the effect is half-maximal. The molecule `CC(=O)O[C@H]1CC(C)(C)C(=C=C/C(C)=C/C=C/C=C/C=C(C)/C=C2C=C(/C=C/[C@@]34O[C@]3(C)C[C@@H](O)CC4(C)C)C(=O)O/2)[C@](C)(O)C1` yielded an EC50 of 4.5 µM.
